Reference: patent publication US20250339399A1, “SUPRAMOLECULAR SELF-ASSEMBLY SYSTEM” (Beijing Creatron Institute of Pharmaceutical Research Co., …, priority 2022, published 2025)

How the values were obtained:
[1] = Guest molecule concentration after incubation in initial medium without polymer (Comparative Example 1); assay type: physicochemical; settings: 37° C.
Outline: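 Dissolved guest content measured by HPLC of centrifuged supernatants (37° C., 13000 rpm, 5 min) sampled at 0.5 h, 3 h and 6 h. Incubation was polymer-free at 37° C.±0.5° C. in buffers of pH 2.0-7.4; nominal loading was set by maximum clinical dose.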

[2] = Binary supramolecular self-assembly systems of polymer and target: guest concentration over incubation time (Comparative Example 2); assay type: physicochemical; settings: for Times that of the initial medium / Concentration of guest molecule in solution: 6 h
Method: Experiments were conducted according to the steps in Comparative Example 1, and quantitative analysis was carried out using the analytical method for each target to investigate the regulation ability […] stacking.

[3] = Binary (carrier), ternary and quaternary supramolecular self-assembly systems of polymer, carrier building block and target: guest concentration over incubation time (Examples 1-56); assay type: physicochemical
Outline: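 Targets were incubated at 37 °C in pH 2.0–7.4 buffers with 0.5% polymer alone or with carrier building blocks, after 0.5 h sonication for ternary systems, and shaken at 200 rpm. Samples at 0.5–6 h were centrifuged and diluted ≥10-fold, and dissolved target was quantified by HPLC; surfactant was added if needed.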

[4] = cited from earlier work
[5] = binary system with 0.5% polymer 101, incubation 0.5 h
[6] = binary system with 0.5% polymer 101, incubation 3 h
[7] = binary system with 0.5% polymer 101, incubation 6 h
[8] = binary system with 0.5% polymer 102, incubation 0.5 h
[9] = binary system with 0.5% polymer 102, incubation 3 h
[10] = binary system with 0.5% polymer 102, incubation 6 h
[11] = binary system with 0.5% polymer 103, incubation 0.5 h
[12] = binary system with 0.5% polymer 103, incubation 3 h
[13] = binary system with 0.5% polymer 103, incubation 6 h
[14] = binary system with 0.5% polymer 106, incubation 0.5 h
[15] = binary system with 0.5% polymer 106, incubation 3 h
[16] = binary system with 0.5% polymer 106, incubation 6 h
[17] = binary system with 0.5% polymer 107, incubation 0.5 h
[18] = binary system with 0.5% polymer 107, incubation 3 h
[19] = binary system with 0.5% polymer 107, incubation 6 h
[20] = binary system with 0.5% polymer 110, incubation 0.5 h
[21] = binary system with 0.5% polymer 110, incubation 3 h
[22] = binary system with 0.5% polymer 110, incubation 6 h
[23] = binary, no polymer: 0.5% 301, 6 h
[24] = binary: 310, % not stated at the place, 6 h
[25] = binary: 312, % not stated at the place, 6 h

SMILES | Concentration of the target in the solution measured after different incubation time [2, 5] | Concentration of the target in the solution measured after different incubation time [2, 6] | Concentration of the target in the solution measured after different incubation time [2, 7] | Concentration of the target in the solution measured after different incubation time [2, 8] | Concentration of the target in the solution measured after different incubation time [2, 9] | Concentration of the target in the solution measured after different incubation time [2, 10] | Concentration of the target in the solution measured after different incubation time [2, 11] | Concentration of the target in the solution measured after different incubation time [2, 12] | Concentration of the target in the solution measured after different incubation time [2, 13] | Concentration of the target in the solution measured after different incubation time [2, 14] | Concentration of the target in the solution measured after different incubation time [2, 15] | Concentration of the target in the solution measured after different incubation time [2, 16] | Concentration of the target in the solution measured after different incubation time [2, 17] | Concentration of the target in the solution measured after different incubation time [2, 18] | Concentration of the target in the solution measured after different incubation time [2, 19] | Concentration of the target in the solution measured after different incubation time [2, 20] | Concentration of the target in the solution measured after different incubation time [2, 21] | Concentration of the target in the solution measured after different incubation time [2, 22] | Times that of the initial medium ([2]; binary: 0.5% 102H) | LogD7.4 or Log P [4] | further results
CNC(=O)c1ccc(N2C(=S)N(c3ccc(C#N)c(C(F)(F)F)c3)C(=O)C2(C)C)cc1F [Enzalutamide] | 272.9 µg/mL | 221.8 µg/mL | 193.8 µg/mL | 90.1 µg/mL | 75.5 µg/mL | 72.2 µg/mL | 102.4 µg/mL | 88.4 µg/mL | 84.4 µg/mL | 150.2 µg/mL | 131.1 µg/mL | 128.2 µg/mL | 236.9 µg/mL | 151.4 µg/mL | 137.8 µg/mL | 53.8 µg/mL | 45.8 µg/mL | 43.0 µg/mL | 1.7 times | 4.16 | Concentration of guest molecule measured after different incubated time ([1]; 0.5 h, 0.2% SDS in pH 6.8 phosphate buffer): 62.3 µg/mL; Concentration of guest molecule measured after different incubated time ([1]; 3 h, 0.2% SDS in pH 6.8 phosphate buffer): 57.1 µg/mL; Concentration of guest molecule measured after different incubated time ([1]; 6 h, 0.2% SDS in pH 6.8 phosphate buffer): 59.0 µg/mL; Times that of the initial medium ([2]; binary: 0.5% 107): 1.9 times; Concentration of guest molecule in solution ([3]; binary: 0.25% 312, 6 h): 135 µg/mL; Concentration of guest molecule in solution ([3]; binary: 0.25% 318, 6 h): 175 µg/mL; Concentration of guest molecule in solution ([3]; quaternary: 0.25% 202 (102H+107) + 0.25% 312, 6 h): 371 µg/mL; Concentration of guest molecule in solution ([3]; quaternary: 0.25% 202 (102H+107) + 0.25% 313, 6 h): 533 µg/mL; Concentration of guest molecule in solution ([3]; quaternary: 0.25% 202 (102H+107) + 0.25% 318, 6 h): 451 µg/mL; Concentration of guest molecule in solution ([3]; quaternary: 0.25% 202 (102H+107) + 0.25% 321, 6 h): 623 µg/mL
C=CC[C@@H]1/C=C(\C)C[C@H](C)C[C@H](OC)[C@H]2O[C@@](O)(C(=O)C(=O)N3CCCC[C@H]3C(=O)O[C@H](/C(C)=C/[C@@H]3CC[C@@H](O)[C@H](OC)C3)[C@H](C)[C@@H](O)CC1=O)[C@H](C)C[C@@H]2OC [Tacrolimus] | 224.0 µg/mL | 88.8 µg/mL | 161.3 µg/mL | 63.4 µg/mL | 60.3 µg/mL | 55.7 µg/mL | 46.8 µg/mL | 58.7 µg/mL | 6.0 µg/mL | 78.6 µg/mL | 65.2 µg/mL | 5.2 µg/mL | 68.7 µg/mL | 62.8 µg/mL | 13.2 µg/mL | – | – | – | – | – | Concentration of guest molecule measured after different incubated time ([1]; 0.5 h, pH 4.5 acetate buffer): 77.4 µg/mL; Concentration of guest molecule measured after different incubated time ([1]; 3 h, pH 4.5 acetate buffer): 8.2 µg/mL; Concentration of guest molecule measured after different incubated time ([1]; 6 h, pH 4.5 acetate buffer): 17.3 µg/mL; Concentration of guest molecule in solution ([3]; ternary: 0.25% 102H + 307, 6 h): 161.3 µg/mL; Concentration of guest molecule in solution ([3]; ternary: 0.25% 102H + 308, 6 h): 219.1 µg/mL; Concentration of guest molecule in solution ([3]; ternary: 0.25% 102H + 320, 6 h): 328.9 µg/mL; Concentration of guest molecule in solution ([3]; ternary: 0.25% 102H + 321, 6 h): 337.2 µg/mL; LogP [4]: LogP 5.59
CCCCC1OC(=O)c2ccccc21 (stereo not drawn) [Butylphthalide] | 555.9 µg/mL | 229.5 µg/mL | 230.7 µg/mL | 258.9 µg/mL | 245.3 µg/mL | 244.5 µg/mL | 234.7 µg/mL | 230.8 µg/mL | 233.8 µg/mL | 240.7 µg/mL | 244.6 µg/mL | 241.9 µg/mL | 242.4 µg/mL | 240.0 µg/mL | 243.7 µg/mL | 240.5 µg/mL | 253.9 µg/mL | 252.1 µg/mL | – | 3.36 | Concentration of guest molecule measured after different incubated time ([1]; 0.5 h, pH 6.5 phosphate buffer): 252.2 µg/mL; Concentration of guest molecule measured after different incubated time ([1]; 3 h, pH 6.5 phosphate buffer): 246.4 µg/mL; Concentration of guest molecule measured after different incubated time ([1]; 6 h, pH 6.5 phosphate buffer): 246.0 µg/mL; Concentration of guest molecule in solution ([3]; ternary: 0.25% 102M + 0.25% 313, 2 h): 480.3 µg/mL; Concentration of guest molecule in solution ([3]; ternary: 0.25% 102M + 0.25% 313, 6 h): 650.6 µg/mL; Concentration of guest molecule in solution ([3]; ternary: 0.25% 102M + 0.25% 313, 10 h): 1026.3 µg/mL; Concentration of guest molecule in solution ([3]; ternary: 0.25% 102M + 0.25% 314, 2 h): 1103.4 µg/mL; Concentration of guest molecule in solution ([3]; ternary: 0.25% 102M + 0.25% 314, 6 h): 406.8 µg/mL; Concentration of guest molecule in solution ([3]; ternary: 0.25% 102M + 0.25% 318, 2 h): 521.5 µg/mL; Concentration of guest molecule in solution ([3]; ternary: 0.25% 102M + 0.25% 318, 6 h): 754.1 µg/mL; Concentration of guest molecule in solution ([3]; ternary: 0.25% 102M + 0.25% 318, 10 h): 1310.2 µg/mL; Concentration of guest molecule in solution ([3]; ternary: 0.25% 102M + 0.25% 319, 2 h): 413.5 µg/mL; Concentration of guest molecule in solution ([3]; ternary: 0.25% 102M + 0.25% 319, 6 h): 643.7 µg/mL; Concentration of guest molecule in solution ([3]; ternary: 0.25% 102M + 0.25% 319, 10 h): 1125.6 µg/mL
COc1ccc(-n2nc(C(N)=O)c3c2C(=O)N(c2ccc(N4CCCCC4=O)cc2)CC3)cc1 [Apixaban] | – | – | – | – | – | – | – | – | – | – | – | – | – | – | – | – | – | – | 6.7 times | – | Concentration of guest molecule measured after different incubated time ([1]; 0.5 h, pH 6.8 phosphate buffer): 49.8 µg/mL; Concentration of guest molecule measured after different incubated time ([1]; 3 h, pH 6.8 phosphate buffer): 48.7 µg/mL; Concentration of guest molecule measured after different incubated time ([1]; 6 h, pH 6.8 phosphate buffer): 48.0 µg/mL; Concentration of guest molecule in solution ([2]; binary: 0.25% 102H): 127.7 µg/mL; Times that of the initial medium ([2]; binary: 0.25% 102H): 2.7 times; Concentration of guest molecule in solution ([2]; binary: 0.25% 103E5): 114.6 µg/mL; Times that of the initial medium ([2]; binary: 0.25% 103E5): 2.4 times; Concentration of guest molecule in solution ([2]; binary: 0.5% 102H): 327.6 µg/mL; Concentration of guest molecule in solution [3, 23]: 366.6 µg/mL; Times that of the initial medium [3, 23]: 7.5 times; Concentration of guest molecule in solution [3, 24]: 300.0 µg/mL; Times that of the initial medium [3, 24]: 6.3 times; Concentration of guest molecule in solution [3, 25]: 397.9 µg/mL; Times that of the initial medium [3, 25]: 8.2 times; Concentration of guest molecule in solution ([3]; ternary: 102H (0.25% where stated) + 301, carrier % not stated, 6 h): 334.8 µg/mL; Concentration of guest molecule in solution ([3]; ternary: 102H (0.25% where stated) + 302, carrier % not stated, 6 h): 312.6 µg/mL; Encapsulation rate for the guest molecule ([3]; ternary: 102H + 313 or 318): ~100%; LogP [4]: LogP 1.83
